Assay results as given in US9051325B2, “Bicyclic [5,6] imidazo pyrimodone compounds for use in the treatment of diseases or conditions mediated by Lp-PLA2” (GlaxoSmithKline Intellectual Property Development Limited, priority 2013, dated 2015).

How the values were obtained:
[1] = target: T1, recombinant human Lp-PLA2 (Homo sapiens, UniProt Q13093); experiment: Recombinant human Lp-PLA2 assay (rhLp-PLA2, PED6 assay); type: biochemical; settings: lower bounds; read-out: pIC50 values in the PED6 assay (converted)
T1 sequence (Q13093 22-441): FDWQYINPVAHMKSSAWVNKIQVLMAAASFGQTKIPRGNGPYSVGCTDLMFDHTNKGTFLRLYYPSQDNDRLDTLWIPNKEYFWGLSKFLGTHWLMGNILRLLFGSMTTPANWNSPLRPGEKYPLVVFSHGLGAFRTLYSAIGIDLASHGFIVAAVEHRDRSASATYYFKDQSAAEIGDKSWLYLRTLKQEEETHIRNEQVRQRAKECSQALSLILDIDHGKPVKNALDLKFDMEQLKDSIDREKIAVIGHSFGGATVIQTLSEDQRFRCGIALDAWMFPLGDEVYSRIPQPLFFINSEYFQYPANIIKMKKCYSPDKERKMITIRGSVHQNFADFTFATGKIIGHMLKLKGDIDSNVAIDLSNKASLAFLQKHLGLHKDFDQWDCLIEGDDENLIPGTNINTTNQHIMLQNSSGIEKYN
Text: (1) Recombinant Human Lp-PLA2 Assay (rhLp-PLA2) (Also Referred to as “PED6” Assay)
N-((6-(2,4-dinitrophenyl)amino)-hexanoyl)-2-(4,4-difluoro-5,7-dimethyl-4-bora-3a,4a-diaza-s-indacene-3-pentanoyl)-1-hexadecanoyl-sn-glycero-3-phosphoethanolamine, triethylammonium salt (PED6) is a commercially available fluorescently-labeled phospholipid, which is commercially available from Invitrogene and Molecular Probes. There is a quenching […] and a Bodipy fluorescein (FL) group in the sn2 position. Upon cleavage with Lp-PLA2, the Bodipy FL group is liberated and then may result in an increase in fluorescence. Inhibitors of Lp-PLA2 therefore prevent this cleavage and no fluorescent increase is observed.
The PED6 assay was run as an unquenched 10 μL assay. The source plate containing the compounds to be tested was prepared by making 1:3 (by volume) serial dilution of the compounds within DMSO on 384-well microplate. Then, 0.01 μL of the compounds on compound source plate were transferred into 384 well Greiner 784076 (black) plates using ECHO liquid dispenser. 5 μL of recombinant human Lp-PLA2 enzyme (4 nM (or […]) rhLp-PLA2 in assay buffer of 50 mM HEPES, pH 7.4, 150 mM NaCl, 1 mM CHAPS) was added to each well of the plate. Plates were centrifuged for 10 sec at 500 rpm. After 30 minutes preincubation, 5 μL of substrate ([…] PED6 [from 5 mM DMSO stock] in assay buffer of 50 mM HEPES, pH 7.4, 150 mM NaCl, 1 mM CHAPS) was added to 384 well Greiner 784076 (black) plates. Plates were centrifuged for 10 sec at 500 rpm. The plate was covered to protect it from light and incubated for 20 min at room temperature. The plates were read for fluorescence intensity at ex: 480/em: 540 using ViewLux microplate imager for Envision spectrofluoroimeters pIC50 data, curve and QC analysis was conducted by using XL fit module in Excel.

Lp-PLA2 in human plasma = target: T2, Lp-PLA2 in human plasma (Homo sapiens, UniProt Q13093); experiment: Lp-PLA2 human plasma assay (Thio-PAF assay); type: biochemical; settings: pooled human plasma; lower bounds; read-out: pIC50 values in the thio-PAF assay (converted)
T2 construct: from tissue; host or cells: pooled human plasma
T2 sequence (Q13093 22-441): T1 sequence (Q13093 22-441)
Text: (3) Lipoprotein-Associated Phospholipase A2 (Lp-PLA2) Human Plasma Assay (Also Referred to as “Thio-PAF assay”)
The human plasma assay utilizes a thioester analog of PAF (phosphatidylcholine), where hydrolysis yields to the formation of a phospholipid containing a free thiol group. The amount of thiol is quantitated continuously by reacting with CPM (7-diethylamino-3-(4′-maleimidylphenyl)-4-methylcoumarin), a maleimide which increases in fluoresence after Michael addition of thiols. This assay may detect the activity of Lp-PLA2 in human plasma, as determined by specific inhibition by Lp-PLA2 inhibitors.
The thio-PAF assay was run as a quenched 15 μL assay. Compounds source plate was prepared by making 1:3 (by volume) serial dilution of the compounds into pure DMSO on 384-well microplate. 0.01 μL of compounds on compound source plate were transferred to 384 well Greiner 784076 (black) low-volume plates by ECHO liquid dispenser. 8 μL pooled human plasma, which was previously aliquoted and frozen, was added. Plates were centrifuged for 10 sec at 500 rpm. After 30 minutes preincubation, 2 μL of substrate solution comprising 2.5 mM 2-thio-PAF [from ethanol stock], 32 μM CPM [from a DMSO stock] and 3.2 mM NEM (N-ethylmaleimide) [made fresh daily in DMSO] in assay buffer of 50 mM HEPES, pH 7.4, 150 mM NaCl, 1 mM CHAPS was added to 384 well Greiner 784076 (black) low-volume plates by BRAVO liquid handling station. After 2 mins, reaction was quenched with 5 μL of 5% aqueous trifluoroacetic acid (TFA). Plates were covered to protect from light and incubated for 40 min at room temperature. Plates were read at ex: 380/em: 485 using-Envision microplate reader. PIC50 data, curve and QC analysis were conducted by using XLFit module in Excel.

Row | SMILES | IC50 [1] | IC50 (Lp-PLA2 in human plasma)
1 | C[C@H]1Cn2c(cc(OCc3ccc(Oc4ccc(C(F)(F)F)nc4)c(F)c3)nc2=O)N1C [Example E6, (S)-7-((3-fluoro-4-((6-(trifluoromethyl)pyridin-3-yl)oxy)benzyl)oxy)-1,2-dimethyl-2,3-dihydroimidazo[1,2-c]pyrimidin-5(1H)-one] | ≤ 1 nM | –
2 | C[C@H]1Cn2c(cc(OCc3ccc(F)c(F)c3)nc2=O)N1 [Example E9, (S)-7-((3,4-difluorobenzyl)oxy)-2-methyl-2,3-dihydroimidazo[1,2-c]pyrimidin-5(1H)-one] | ≤ 10 nM | –
3 | O=c1nc(OCc2ccc(Oc3ccc(Cl)c(C(F)(F)F)c3)cc2)cc2n1CCN2C1CC1 [Example E17, 7-((4-(4-chloro-3-(trifluoromethyl)phenoxy)benzyl)oxy)-1-cyclopropyl-2,3-dihydroimidazo[1,2-c]pyrimidin-5(1H)-one] | ≤ 10 nM | –
4 | CN1c2cc(OCc3cccc(Cl)c3)nc(=O)n2CC1(C)C [Example E21, 7-((3-chlorobenzyl)oxy)-1,2,2-trimethyl-2,3-dihydroimidazo[1,2-c]pyrimidin-5(1H)-one] | ≤ 10 nM | –
5 | [2H]C([2H])(Oc1cc2n(c(=O)n1)C[C@H](C)N2C)c1ccc(F)c(F)c1 [Example E22, (S)-7-(dideutero(3,4-difluorophenyl)methoxy)-1,2-dimethyl-2,3-dihydroimidazo[1,2-c]pyrimidin-5(1H)-one] | ≤ 10 nM | –
6 | C[C@H]1Cn2c(cc(OCc3ccc(Oc4cncc(C#N)c4)c(F)c3)nc2=O)N1C [Example E24, (S)-5-(4-(((1,2-dimethyl-5-oxo-1,2,3,5-tetrahydroimidazo[1,2-c]pyrimidin-7-yl)ox-y)methyl)-2-fluorophenoxy)nicotinonitrile] | ≤ 10 nM | –
7 | C[C@H]1Cn2c(cc(OCc3ccc(Oc4cccc(F)c4)c(F)c3)nc2=O)N1C [Example E27, (S)-7-((3-fluoro-4-(3-fluorophenoxy)benzyl)oxy)-1,2-dimethyl-2,3-dihydroimidazo-[1,2-c]pyrimidin-5(1H)-one] | ≤ 10 nM | –
8 | C[C@H]1Cn2c(cc(OCc3ccc(Oc4cccc(F)c4)c(F)c3)nc2=O)N1 [Example E28, (S)-7-((3-fluoro-4-(3-fluorophenoxy)benzyl)oxy)-2-methyl-2,3-dihydroimidazo[1,2-c]pyrimidin-5(1H)-one] | ≤ 10 nM | –
9 | C[C@@H]1Cn2c(cc(OCc3cccc(C#N)c3)nc2=O)N1C [Example E33, (R)-3-(((1,2-dimethyl-5-oxo-1,2,3,5-tetrahydroimidazo[1,2-c]pyrimidin-7-yl)oxy)methyl)benzonitrile] | – | ≤ 100 nM
10 | CN1c2cc(OCc3ccc(Cl)c(F)c3)nc(=O)n2CC1(C)C [Example E36, 7-((4-chloro-3-fluorobenzyl)oxy)-1,2,2-trimethyl-2,3-dihydroimidazo[1,2-c]pyrimidin-5(1H)-one] | ≤ 10 nM | –
11 | CN1c2cc(OCCC3CCCC3)nc(=O)n2CC1(C)C [Example E52, 7-(2-cyclopentylethoxy)-1,2,2-trimethyl-2,3-dihydroimidazo[1,2-c]pyrimidin-5(1H)-one] | – | ≤ 100 nM
12 | C[C@H]1Cn2c(cc(OCc3ccc(Oc4ccc(F)cc4)c(C#N)c3)nc2=O)N1C [Example E57, (S)-5-(((1,2-dimethyl-5-oxo-1,2,3,5-tetrahydroimidazo[1,2-c]pyrimidin-7-yl)oxy)methyl)-2-(4-fluorophenoxy)benzonitrile] | ≤ 1 nM | –
13 | C[C@H]1Cn2c(cc(OCc3ccc(Oc4ccc(C(F)(F)F)nc4)c(F)c3)nc2=O)N1 [Example E62, (S)-7-((3-fluoro-4-((6-(trifluoromethyl)pyridin-3-yl)oxy)benzyl)oxy)-2-methyl-2,3-dihydroimidazo[1,2-c]pyrimidin-5(1H)-one] | ≤ 1 nM | –
14 | C[C@H]1Cn2c(cc(OCc3cccc(C#N)c3)nc2=O)N1C [Example E72, (S)-3-(((1,2-dimethyl-5-oxo-1,2,3,5-tetrahydroimidazo[1,2-c]pyrimidin-7-yl)oxy)methyl)benzonitrile] | – | ≤ 100 nM
15 | C[C@H]1Cn2c(cc(OCc3cc(F)c(Oc4cccc(F)c4)c(F)c3)nc2=O)N1C [Example E76, (S)-7-((3,5-difluoro-4-(3-fluorophenoxy)benzyl)oxy)-1,2-dimethyl-2,3-dihydroimidazo[1,2-c]pyrimidin-5(1H)-one] | ≤ 1 nM | –
16 | C[C@H]1Cn2c(cc(OCc3cc(F)cc(F)c3)nc2=O)N1 [Example E85, (S)-7-((3,5-difluorobenzyl)oxy)-2-methyl-2,3-dihydroimidazo[1,2-c]pyrimidin-5(1H)-one] | – | ≤ 100 nM
17 | [2H]C([2H])(Oc1cc2n(c(=O)n1)C[C@H](C)N2C)c1cc(F)c(F)c(F)c1 [Example E86, (S)-7-(dideutero(3,4,5-trifluorophenyl)methoxy)-1,2-dimethyl-2,3-dihydroimidazo[1,2-c]pyrimidin-5(1H)-one] | ≤ 10 nM | –
18 | CN1c2cc(OCc3cc(F)ccc3F)nc(=O)n2CC1(C)C [Example E92, 7-((2,5-difluorobenzyl)oxy)-1,2,2-trimethyl-2,3-dihydroimidazo[1,2-c]pyrimidin-5(1H)-one] | ≤ 10 nM | –
19 | C[C@H]1Cn2c(cc(OCc3ccc(Oc4ccc(F)cc4)c(F)c3)nc2=O)N1C [Example E94, (S)-7-((3-fluoro-4-(4-fluorophenoxy)benzyl)oxy)-1,2-dimethyl-2,3-dihydroimidazo[1,2-c]pyrimidin-5(1H)-one] | ≤ 10 nM | –
20 | C[C@H]1Cn2c(cc(OCc3cccc(C#N)c3)nc2=O)N1 [Example E109, (S)-3-(((2-methyl-5-oxo-1,2,3,5-tetrahydroimidazo[1,2-c]pyrimidin-7-yl)oxy)methyl)benzonitrile] | – | ≤ 100 nM
21 | N#Cc1cc(COc2cc3n(c(=O)n2)CCN3C2CC2)ccc1Oc1ccc(F)c(F)c1 [Example E118, 5-(((1-cyclopropyl-5-oxo-1,2,3,5-tetrahydroimidazo[1,2-c]pyrimidin-7-yl)oxy)methyl)-2-(3,4-difluorophenoxy)benzonitrile] | ≤ 10 nM | –
22 | CN1c2cc(OCc3cc(F)cc(Cl)c3)nc(=O)n2CC1(C)C [Example E125, 7-((3-chloro-5-fluorobenzyl)oxy)-1,2,2-trimethyl-2,3-dihydroimidazo[1,2-c]pyrimidin-5(1H)-one] | ≤ 10 nM | –
23 | C[C@H]1Cn2c(cc(OCc3cc(F)c(Oc4ccc(F)c(F)c4)c(F)c3)nc2=O)N1C [Example E126, (S)-7-((4-(3,4-difluorophenoxy)-3,5-difluorobenzyl)oxy)-1,2-dimethyl-2,3-dihydroimidazo[1,2-c]pyrimidin-5(1H)-one] | ≤ 1 nM | –
24 | C[C@H]1Cn2c(cc(OCc3ccc(Oc4ccc(F)cc4)c(F)c3)nc2=O)N1 [Example E130, (S)-7-((3-fluoro-4-(4-fluorophenoxy)benzyl)oxy)-2-methyl-2,3-dihydroimidazo[1,2c]pyrimidin-5(1H)-one] | ≤ 10 nM | –
